The values below come from PubChem BioAssay (NCI).

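Results reflect a 48-hour exposure of cells in 96-well plates to compound at five concentrations. Abbreviation: GI50, concentration required for 50% inhibition of growth. The concentration for full growth arrest is given as TGI.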 Where only a bound is given, the exact number is not on record here.

What all share (assay): growth of human tumour cells (NCI), 48 h
In test [1] the test system is CAKI-1 renal.
Test [2] concerns DMS 273 small cell lung.
The subject of test [3] is HCC-2998 colon.
Test [4] has as its system KM20L2 colon.
Test [5] relates to MALME-3M melanoma.
Test [6] concerns SF-539 CNS.
In test [7] the test system is SN12C renal.
Test [8] has as its system UACC-257 melanoma.
Test [9] relates to UACC-62 melanoma.
Test [10] relates to SK-OV-3 ovarian.

`CC(=O)O[C@@H]1CC(C)C2CC2C2=C(C(O)OC2O)[C@@H]1C(C)CCC=C(C)C` (stereo partly drawn): the TGI was determined as 58.3 µM in [1]; 45.3 µM in [2]; 40.5 µM in [3]; 39.9 µM in [4]; 67 µM in test [5]; 34.2 µM in test [6]. In addition, the TGI in [7] came out at 35.9 µM; in test [8], 62.9 µM; in test [9], 67.3 µM.
Turning to `COc1cc2c(cc1OC)[C@@H](C(O)c1ccccc1)NCC2` (stereo partly drawn), the TGI in test [1], in test [2], in test [3], in test [4], in [5] and in test [6] was more than 100 µM each time. For the same molecule, the TGI in [10], in test [7], in test [8] and in [9] was more than 100 µM each time.
`Cc1cccc(C)c1NC(=O)C(=O)CC(=O)CO`: the TGI in test [1], in test [2], in test [3], in test [4], in test [5] and in test [6] was more than 100 µM each time. Moreover, the TGI in test [10], in test [7], in test [8] and in test [9] was more than 100 µM in each case.
For `CN(C)c1ccc(/C=C2\N=C(c3ccc(N)cc3)OC2=O)cc1`, the TGI in [1], in test [2], in [3], in [4], in test [5] and in test [6] was more than 100 µM throughout. The TGI in test [10], in test [7], in test [8] and in test [9] was more than 100 µM throughout.
In the case of `N#CC1(c2nc3ccccc3o2)C(=O)C(=O)N(c2ccc(Cl)c(Cl)c2)C(=O)C1=O`, the TGI in test [1], in test [2], in [3], in test [4], in test [5] and in [7] was more than 100 µM throughout. The same molecule had a TGI in test [8] of more than 100 µM.
On to `Cc1ccc(C2=Nc3ccccc3NC(=O)C2)cc1`, for which the TGI in [1], in [2], in test [3], in [4], in [5] and in [6] was more than 100 µM in each case. Further, the TGI in test [10], in [7], in test [8] and in test [9] was more than 100 µM throughout.
Regarding `CC(=S)NNC(=O)c1ccncc1`, the TGI in test [1], in test [2], in test [3], in test [4], in [5] and in test [6] was more than 100 µM throughout. For the same molecule, the TGI in test [10], in test [7], in [8] and in [9] was more than 100 µM in each case.
For the molecule `CC(C)(C)C(=O)C(c1ccc(-c2cscn2)cc1)c1ccc(-c2cscn2)cc1`, the TGI is more than 73.2 µM in test [1]; more than 100 µM in test [2]; more than 100 µM in test [3]; more than 100 µM in [4]; more than 100 µM in [5]; more than 56.3 µM in test [6]. The TGI in [10] was 65.3 µM; in [7], more than 100 µM; in test [8], more than 100 µM; in [9], more than 71.4 µM.
Regarding `COC1CC(OS(=O)(=O)c2ccc(C)cc2)C(OS(=O)(=O)c2ccc(C)cc2)C(COS(=O)(=O)c2ccc(C)cc2)O1` (stereo not drawn), the TGI in test [1] was 7.7 µM; in [2] it was 18.6 µM; in test [3] it was 49.3 µM; in test [4], 30.9 µM; in [5] it was 8.57 µM; in test [6], 6.65 µM. The TGI came to 8.62 µM in test [10], 20.8 µM in test [7], 21 µM in test [8] and 18.6 µM in test [9].
With `O=Cc1[nH]c2ccccc2c1Br`, the TGI in [1] is more than 100 µM; in test [2], 36.3 µM; in test [3], more than 100 µM; in test [4], 41.5 µM; in test [5] it was 45.1 µM; in test [6], 34.5 µM. Further, the TGI in [10] was 44.9 µM; in test [7] it was 50.5 µM; in [8], 67.4 µM; in test [9], 33.7 µM.
`Cc1cc2c(c(C#N)c1C)NC(=O)C(CC(=O)O)C2=O` (stereo not drawn): the TGI in test [1], in [2], in test [3], in [4], in [5] and in [6] was more than 100 µM each time. Further, the TGI in test [10], in [7], in test [8] and in [9] was more than 100 µM in each case.
As for `O=C(Nc1nccs1)c1cc(C2=CC=CC([N+](=O)[O-])C=C2)nc(=S)[nH]1` (stereo not drawn), the TGI in [1], in [2], in test [3], in [4], in test [5] and in test [6] was more than 100 µM throughout. The TGI in [10], in test [7], in test [8] and in test [9] was more than 100 µM throughout.
As for `CN(C)CCCn1c2c3ccccc3ccc2c2oc(=O)c3ccccc3c21`, the TGI amounted to 27.6 µM in test [1]; 4.22 µM in test [2]; 2.46 µM in test [3]; 2.78 µM in [4]; 29.8 µM in test [5]; 7.82 µM in [6]. Besides, the TGI in [10] is more than 61.8 µM; in test [8], 19.1 µM; in test [9] it was 20.3 µM.
With `O=C(O)c1ccc([N+](=O)[O-])c2c(=O)c3ccccc3[nH]c12`, the TGI in test [1], in [2], in [3], in test [4], in [5] and in test [6] was more than 100 µM in each case. Moreover, the TGI in test [10], in test [7], in test [8] and in test [9] was more than 100 µM throughout.
For the molecule `CCN(CC)C(=S)N/N=C(\C)c1ccccc1O`, the TGI in test [1] is 55.3 µM; in test [2], more than 100 µM; in test [3] it was more than 100 µM; in [4], 59.2 µM; in test [5], more than 100 µM; in [6], 54.4 µM. The TGI in test [10] was 79 µM; in test [7] it was more than 100 µM; in test [8], more than 100 µM; in test [9] it was more than 100 µM.
As for `CCCCC(=O)[O-].N.N.N.N.N.[Co+3].[O-][Cl+3]([O-])([O-])[O-]`, the GI50 in [2], in [3], in test [4], in test [5], in [6] and in [10] was more than 100 µM each time. The GI50 in test [7], in test [8] and in [9] was more than 100 µM each time. Further, the TGI in test [2], in [3], in [4], in [5], in [6] and in [10] was more than 100 µM throughout. In addition, the TGI in [7], in test [8] and in [9] was more than 100 µM each time.
Regarding `O=C(c1ccc(NCN2C(=O)CCC2=O)cc1)c1ccc(NCN2C(=O)CCC2=O)cc1`, the TGI in test [2], in [3], in [4], in test [5], in [6] and in test [7] was more than 100 µM throughout. Also, the TGI in test [8] was 84.6 µM; in [9], more than 100 µM.
As to `CNS(=O)(=O)NN(C)S(=O)(=O)c1ccc(Br)cc1`, the TGI in [1], in [2], in [3], in test [4], in [5] and in [6] was more than 100 µM throughout. Further, the TGI in test [7], in test [8] and in test [9] was more than 100 µM each time.
Consider `O=C(N/N=C/c1cc(Br)cc(Br)c1[O-])c1ccccc1O.O=C(N/N=C/c1cc(Br)cc(Br)c1[O-])c1ccccc1O.[Mn+2]`, for which the TGI in test [1] came to 11.9 µM; in test [3], 25.9 µM; in [4] it was 21.3 µM; in test [5] it was 16.6 µM; in test [6], 5.56 µM; in test [10] it was 33.8 µM. The TGI in [7] was determined as 16.5 µM; in test [8], 21 µM; in test [9] it was 17.2 µM. In addition, in test [7], the GI50 is 1.56 µM.
Take `O[C@]12CCCC[C@H]1CCC2`: the TGI in [1], in test [2], in test [3], in test [5], in [6] and in test [10] was more than 100 µM throughout. For the same molecule, the TGI in [7], in test [8] and in [9] was more than 100 µM each time.
Turning to `C=CCN=C1N=C(CC(=O)OCC)CS1`, the TGI in test [1], in test [2], in test [3], in [4], in test [5] and in test [6] was more than 100 µM each time. Besides, the TGI in [10], in test [7], in [8] and in test [9] was more than 100 µM each time.
On to `COC1=C(C(=O)OC(C)(C)C)[C@]2(C)C(C(=O)OC(C)(C)C)C(OC)=C(C(=O)OC(C)(C)C)[C@]2(C)C1C(=O)OC(C)(C)C` (stereo partly drawn), for which the TGI in test [1], in [2], in test [3], in test [4], in [5] and in test [6] was more than 100 µM each time. Besides, the TGI in [10], in [7], in [8] and in test [9] was more than 100 µM throughout.
Turning to `CCOC(=O)NC(=O)c1cn(CCCOC(=O)CCCCCCCCC(=O)OCCCn2cc(C(=O)NC(=O)OCC)c(=O)[nH]c2=O)c(=O)[nH]c1=O`, the TGI was 51.3 µM in test [1]; 66.6 µM in test [2]; 44.8 µM in test [3]; more than 100 µM in test [4]; 82.1 µM in test [6]; more than 100 µM in test [10]. The TGI in test [7] was more than 100 µM; in test [8], 48.4 µM; in [9], 69.1 µM.
Turning to `CC(=O)Oc1cccc2c1C(=O)C(Br)(Br)CCC2`, the TGI in [1] amounted to 10.7 µM; in [2], 14.9 µM; in test [3], 31.1 µM; in test [4] it was 21.7 µM; in test [5] it was 5.59 µM; in test [6] it was 23.1 µM. Further, the TGI amounted to 24.9 µM in test [10], 19.7 µM in test [7], 25 µM in test [8] and 20.9 µM in test [9].
